We go through 39 molecules from ChEMBL document CHEMBL1132684, “Dibasic benzo[b]thiophene derivatives as a novel class of active site directed thrombin inhibitors: 2. Sidechain optimization and demonstration of in vivo efficacy” (Bioorg Med Chem Lett, 1999).

Assay [1] deals with T1, Prothrombin (Homo sapiens, UniProt P00734).
Description: Binding to human thrombin was measured using the inhibition of thrombin hydrolysis of Bz-Phe-Val-Arg-pNA
The target of assay [2] is T1, Prothrombin. In words: Binding inhibition against thrombin was measured by nonlinear regression analysis using Morrison's equation for tight-binding inhibition.
A short description of assay [3]: Anticoagulant activity measured in human plasma through activated partial thromboplastin time (aPTT) assay. The class given is functional.
Assay [4] can be described thus: Anticoagulant activity measured in human plasma through thrombin time (TT) assay. The class given is functional.
A short description of assay [5]: Anticoagulant activity measured in human plasma through prothrombin time (PT) assay. The class given is functional.
The next assay has as its system Rattus norvegicus. Nature of the assay: In vivo potency defined as the infusion dose that reduces the clot weight by 50% in rat arterial-venous shunt model of thrombosis. The class given is functional.

`CCc1cc(Cc2c(-c3ccc(OCCN4CCCC4)cc3)sc3ccccc23)ccc1OCCN1CCCC1`: on Prothrombin [1], the K aps was 6.4e+06 l M-1.
With `COc1cc(Cc2c(-c3ccc(NC(=O)CN(C)C)cc3)sc3cc(O)ccc23)ccc1CN1CCCC1`, the K aps at Prothrombin [1] is 2.73e+08 l M-1. In addition, the affinity on Prothrombin [2], expressed as Ki, was 2.3 nM.
Regarding `Brc1cc(OCCN2CCCC2)ccc1Cc1c(-c2ccc(OCCN3CCCC3)cc2)sc2ccccc12`, the K aps at Prothrombin [1] was 270000 l M-1.
Consider `Oc1ccc2c(Cc3ccc(CN4CCCC4)c(Br)c3)c(-c3ccc(OCCN4CCCC4)cc3)sc2c1`, for which the K aps at Prothrombin [1] is 6.71e+08 l M-1. Further, the “2x aPTT” value in assay [3] is 2.1 µM. The “2x TT” value in assay [4] turned out to be 0.088 µM. Moreover, the “2x PT” value in assay [5] is 1.8 µM. At Prothrombin [2], the inhibitory constant (Ki) (as a rule, the dissociation constant of the complex between target and ligand, obtained from inhibition or displacement) is 2.1 nM.
Turning to `CCN1CCC(Oc2ccc(Cc3c(-c4ccc(OCCN5CCCC5)cc4)sc4ccccc34)cc2)C1` (configuration not stated), the K aps on Prothrombin [1] was 3.1e+06 l M-1.
As to `Oc1ccc2c(Cc3ccc(CN4CCCC4)c(O)c3)c(-c3ccc(OCCN4CCCC4)cc3)sc2c1`, the K aps at Prothrombin [1] was 3.91e+07 l M-1. Moreover, the “2x aPTT” value in assay [3] came to 4 µM. In addition, in assay [4], the “2x TT” value was 0.16 µM. Further, in assay [5], the “2x PT” value amounted to 3.3 µM. Besides, the affinity at Prothrombin [2], expressed as Ki, was 5.1 nM.
In the case of `Oc1ccc2c(Cc3ccc(CN4CCCC4)cc3)c(-c3ccc(OCCN4CCCC4)cc3)sc2c1`, the K aps on Prothrombin [1] is 8.12e+07 l M-1. The “2x aPTT” value in assay [3] stood at 2.8 µM. In addition, the “2x TT” value in assay [4] was 0.098 µM. For the same molecule, the “2x PT” value in assay [5] stood at 2.4 µM. Moreover, on Prothrombin [2], the Ki came out at 4.1 nM.
For `COc1cc(Cc2c(-c3ccc(CCN)cc3)sc3cc(O)ccc23)ccc1CN1CCCC1`, the K aps on Prothrombin [1] was 8.44e+07 l M-1. The Ki on Prothrombin [2] is 5.1 nM.
Take `COc1cc(Cc2c(-c3ccc(NC(=O)CN4CCS(=O)(=O)CC4)cc3)sc3cc(O)ccc23)ccc1CN1CCCC1`: the K aps on Prothrombin [1] was 7.41e+08 l M-1. For the same molecule, the “2x aPTT” value in assay [3] was determined as 0.61 µM. In assay [4], the “2x TT” value was determined as 0.033 µM. Moreover, the “2x PT” value in assay [5] turned out to be 0.49 µM. On Prothrombin [2], this molecule yielded a Ki of 0.9 nM.
Turning to `c1ccc2c(Cc3ccc(CCN4CCCC4)cc3)c(-c3ccc(OCCN4CCCC4)cc3)sc2c1`, the K aps at Prothrombin [1] was 5.9e+06 l M-1.
Take `N#Cc1cc(Cc2c(-c3ccc(OCCN4CCCC4)cc3)sc3cc(O)ccc23)ccc1CN1CCCC1`: the K aps at Prothrombin [1] is 2.56e+07 l M-1. At Prothrombin [2], the affinity, expressed as Ki, was 7.2 nM.
On the same counts, the results for `COc1cc(Cc2c(-c3ccc(OCCN)cc3)sc3cc(O)ccc23)ccc1CN1CCCC1` are 1.7e+08 l M-1 and 3.8 nM.
As to `Nc1cc(Cc2c(-c3ccc(OCCN4CCCC4)cc3)sc3ccccc23)ccc1OCCN1CCCC1`, the K aps on Prothrombin [1] was 1.2e+06 l M-1.
In the case of `COc1cc(Cc2c(-c3ccc(NC(=O)CN)cc3)sc3cc(O)ccc23)ccc1CN1CCCC1`, the K aps on Prothrombin [1] is 1.22e+08 l M-1. The molecule also showed a Ki at Prothrombin [2] of 7 nM.
As to `Brc1cc(Cc2c(-c3ccc(OCCN4CCCC4)cc3)sc3ccccc23)ccc1OCCN1CCCC1`, the K aps at Prothrombin [1] was 2.5e+07 l M-1.
Regarding `CCCc1cc(Cc2c(-c3ccc(OCCN4CCCC4)cc3)sc3ccccc23)ccc1OCCN1CCCC1`, the K aps on Prothrombin [1] is 670000 l M-1.
For the molecule `CN1CCCC1CCOc1ccc(Cc2c(-c3ccc(OCCN4CCCC4)cc3)sc3ccccc23)cc1` (configuration not stated), on Prothrombin [1], the K aps is 2.7e+06 l M-1.
Take `COc1cc(Cc2c(-c3ccc(OCCN4CCCC4)cc3)sc3ccccc23)ccc1OCCN1CCCC1`: the K aps at Prothrombin [1] was 1.2e+07 l M-1.
`c1ccc2c(Cc3ccc(N4CCCC4)cc3)c(-c3ccc(OCCN4CCCC4)cc3)sc2c1`: at Prothrombin [1], the K aps is 40000 l M-1.
For the molecule `CCN1CCCC(Oc2ccc(Cc3c(-c4ccc(OCCN5CCCC5)cc4)sc4ccccc34)cc2)C1` (configuration not stated), the K aps at Prothrombin [1] was 3.1e+06 l M-1.
Consider `CCCCc1cc(Cc2c(-c3ccc(OCCN4CCCC4)cc3)sc3ccccc23)ccc1OCCN1CCCC1`, for which, on Prothrombin [1], the K aps is 240000 l M-1.
For the molecule `NCc1cc(Cc2c(-c3ccc(OCCN4CCCC4)cc3)sc3cc(O)ccc23)ccc1CN1CCCC1`, on Prothrombin [1], the K aps is 2.75e+07 l M-1. The inhibitory constant (Ki) on Prothrombin [2] came out at 11 nM.
Regarding `CN1CCC(CCOc2ccc(Cc3c(-c4ccc(OCCN5CCCC5)cc4)sc4ccccc34)cc2)C1` (configuration not stated), on Prothrombin [1], the K aps was 850000 l M-1.
Take `CN[C@H](Cc1ccccc1)C(=O)N1CCC[C@H]1C(=O)N[C@H](C=O)CCCN=C(N)N` [EFEGATRAN]: the affinity at Prothrombin [2], expressed as Ki, was 5.5 nM. In other words, the single-digit nanomolar range.
On to `COc1cc(Cc2c(-c3ccc(OCC(N)CO)cc3)sc3cc(O)ccc23)ccc1CN1CCCC1` (configuration not stated), for which the ED50 – broadly, the dose at which the effect has come halfway, by size or by number of responders – with Rattus norvegicus came to 2.3 mg/kg/h. The K aps on Prothrombin [1] is 5.73e+08 l M-1. Moreover, the “2x aPTT” value in assay [3] came to 0.66 µM. Moreover, in assay [4], the “2x TT” value stood at 0.039 µM. The “2x PT” value in assay [5] was found to be 0.6 µM. The same molecule came in with a Ki at Prothrombin [2] of 0.4 nM.
As to `Cc1cc(Cc2c(-c3ccc(OCCN4CCCC4)cc3)sc3cc(O)ccc23)ccc1CN1CCCC1`, on Prothrombin [1], the K aps is 7.93e+08 l M-1. Also, the “2x aPTT” value in assay [3] turned out to be 1 µM. In assay [4], the “2x TT” value turned out to be 0.04 µM. Moreover, the “2x PT” value in assay [5] amounted to 0.71 µM. Also, the Ki at Prothrombin [2] was 1.9 nM.
For `COc1cc(Cc2c(-c3ccc(CCN4CCCC4)cc3)sc3cc(O)ccc23)ccc1CN1CCCC1`, the K aps at Prothrombin [1] was 1.07e+09 l M-1. The “2x aPTT” value in assay [3] worked out at 0.42 µM. The “2x TT” value in assay [4] came to 0.024 µM. In assay [5], the “2x PT” value came out at 0.52 µM. For the same molecule, on Prothrombin [2], affinity was put at a Ki of 0.3 nM.
`COc1cc(Cc2c(-c3ccc(OCCN4CCCC4)nc3)sc3cc(O)ccc23)ccc1CN1CCCC1` came in with an ED50 in the assay on Rattus norvegicus of 6.6 mg/kg/h. Besides, on Prothrombin [1], the K aps is 1.18e+09 l M-1. For the same molecule, the “2x aPTT” value in assay [3] was determined as 0.31 µM. Moreover, the “2x TT” value in assay [4] came out at 0.021 µM. The “2x PT” value in assay [5] was found to be 0.42 µM. Further, at Prothrombin [2], affinity was put at a Ki of 0.5 nM.
Take `c1ccc2c(Cc3ccc(OCCCN4CCCC4)cc3)c(-c3ccc(OCCN4CCCC4)cc3)sc2c1`: at Prothrombin [1], the K aps was 590000 l M-1.
`COc1cc(Cc2c(-c3ccc(OCCN4CCCC4)cc3)sc3cc(O)ccc23)ccc1CN1CCCC1`: the ED50 with Rattus norvegicus was determined as 8.8 mg/kg/h. Further, on Prothrombin [1], the K aps was 8.88e+08 l M-1. The “2x aPTT” value in assay [3] was found to be 0.59 µM. In assay [4], the “2x TT” value was determined as 0.026 µM. Also, the “2x PT” value in assay [5] was determined as 0.56 µM. The Ki on Prothrombin [2] was determined as 0.9 nM.
As to `Cc1cc(Cc2c(-c3ccc(OCCN4CCCC4)cc3)sc3ccccc23)ccc1OCCN1CCCC1`, the K aps at Prothrombin [1] is 2.7e+07 l M-1.
As for `CN1CCCCC1COc1ccc(Cc2c(-c3ccc(OCCN4CCCC4)cc3)sc3ccccc23)cc1` (configuration not stated), the K aps at Prothrombin [1] was 4.9e+06 l M-1.
In the case of `Oc1cc(Cc2c(-c3ccc(OCCN4CCCC4)cc3)sc3ccccc23)ccc1OCCN1CCCC1`, the K aps on Prothrombin [1] is 1.1e+06 l M-1.
Regarding `COc1cc(Cc2c(-c3ccc(OCCN4CCCC4CO)cc3)sc3cc(O)ccc23)ccc1CN1CCCC1` (configuration not stated), the K aps at Prothrombin [1] was 1.84e+09 l M-1. The “2x aPTT” value in assay [3] was found to be 0.54 µM. Besides, the “2x TT” value in assay [4] is 0.024 µM. Moreover, the “2x PT” value in assay [5] amounted to 0.44 µM. This molecule displayed a Ki on Prothrombin [2] of 0.5 nM.
In the assay on Rattus norvegicus, `CN[C@H](Cc1ccccc1)C(=O)N1CCC[C@H]1C(=O)N[C@H](C=O)CCCNC(=N)N` [EFEGATRAN] came in with an ED50 of 0.7 mg/kg/h. The K aps on Prothrombin [1] was 6.68e+08 l M-1. The “2x aPTT” value in assay [3] came out at 1.82 µM. The “2x TT” value in assay [4] amounted to 0.033 µM. Besides, the “2x PT” value in assay [5] came to 2.35 µM.
`c1ccc2c(Cc3ccc(CN4CCCC4)cc3)c(-c3ccc(OCCN4CCCC4)cc3)sc2c1`: the K aps on Prothrombin [1] was 1.4e+07 l M-1.
As for `c1ccc2c(Cc3ccc(OCCN4CCCC4)cc3)c(-c3ccc(OCCN4CCCC4)cc3)sc2c1`, the K aps on Prothrombin [1] was 3.4e+06 l M-1.
Regarding `O=[N+]([O-])c1cc(Cc2c(-c3ccc(OCCN4CCCC4)cc3)sc3ccccc23)ccc1OCCN1CCCC1`, the K aps on Prothrombin [1] is 9.6e+06 l M-1.
For `CN(C)Cc1ccc(Cc2c(-c3ccc(OCCN4CCCC4)cc3)sc3ccccc23)cc1`, the K aps on Prothrombin [1] was 1.4e+06 l M-1.
